Compared with `CCOC(=O)c1cn(CC)c2c(F)c(C(C)=O)c(F)cc2c1=O`, `CCOC(=O)c1nc2c(=O)[nH]c3cc(C(F)(F)F)ccc3n2c1P(=O)(OCC)OCC` is higher in melting point: 129 to 130 °C for the first, 198 to 199 °C for the second.

First: O=C(O)CC[C@H](NC(=O)N1CCc2cc(S(=O)(=O)N3CCN(c4cccc(Cl)c4)CC3)ccc21)C(=O)O
Second: CCCCNC(=O)c1cccc(S(=O)(=O)NC(=O)c2ccc(C(=O)NCC(=O)O)nc2)c1
The melting point of the first is lower: 181 to 182 °C for the first, 220 °C for the second.

First: Cc1nc(-c2ccccc2)nc(N2c3ccccc3CC2C(=O)N(C)c2ccc(Cl)cc2)c1C (stereo unspecified)
Second: CN1C(=O)c2cnc(-c3ccccc3)nc2N(C(=O)CN2CCOCC2)c2ccccc21
The melting point of the first is higher: 236 to 238 °C for the first, 180 to 181 °C for the second.

First: Nc1cc2nc(O)c(O)nc2c2ccccc12
Second: Oc1ccc(Nc2nncc3ccccc23)cc1
The melting point of the first is higher: over 300 °C for the first, 245 to 247 °C for the second.

First: O=C(CCCC(=O)N1C(=O)OC[C@@H]1Cc1ccccc1)c1ccc(F)cc1
Second: COC(=O)CCC(=C1SCCCS1)c1ccc(Oc2ccccc2)cc1
The melting point of the first is higher: 114 °C for the first, 95 to 96 °C for the second.

First: CCNC(=Nc1ccccc1N1CCOCC1)NC
Second: O=C(NCc1cccc2ccccc12)C1CCc2[nH]cnc2C1 (stereo unspecified)
The melting point of the first is lower: 118 to 119 °C for the first, 142 to 144 °C for the second.

Compared with `CCCc1c(OCCCS(=O)(=O)c2nc3ccc(C(=O)O)cc3[nH]2)ccc(C(C)=O)c1O`, `COc1ccc(C(=O)c2ccc(OCCc3nc(-c4ccccc4)oc3C)nc2)c(O)c1` is lower in melting point: 212 to 215 °C for the first, 114 to 115 °C for the second.

Compared with `Cc1nc(Cl)c(-c2c(F)cccc2F)n1-c1ccc(Cl)cc1`, `Clc1ccc(-c2[nH]nc(C3=CCN4CCC[C@H]4C3)c2-c2ccncc2)cc1` is higher in melting point: 143 to 145 °C for the first, 211 to 212 °C for the second.

First: CC1(C)OC(=O)c2c(O)cc(OCc3ccccc3)cc2O1
Second: CC(C)c1cc(-c2ccc(F)cc2)c(OCc2ccccc2)c(C(C)C)c1
The melting point of the first is higher: 80 °C for the first, 65 to 67 °C for the second.

First: COc1cc(C2C3=C(COC3=O)Nc3ccc4cn[nH]c4c32)cc(OC)c1OC (stereo unspecified)
Second: COc1ccc(N2CCN(c3c(C)c4c(c(OC)c3C)OC(C)C4)CC2)cc1C (stereo unspecified)
The melting point of the first is higher: 278 to 279 °C for the first, 94 to 96 °C for the second.

Compared with `CC(=O)C(C)=Cc1cc(O)c(O)c([N+](=O)[O-])c1`, `CC(=O)Nc1cc(C)c(N)cc1C` is lower in melting point: 139 to 141 °C for the first, 133 to 135 °C for the second.

First: O=CN(O)C(CS(=O)(=O)c1ccc(-c2ccc(C(F)(F)F)cc2)cc1)c1cccnc1 (stereo unspecified)
Second: CC(C)(C)c1coc2c(-c3ccc(F)cc3)c(-c3ccc(S(C)(=O)=O)cc3)nn12
The melting point of the first is higher: 186 to 189 °C for the first, 181 to 182 °C for the second.

Compared with `CCN1CCc2c(Br)ccc([N+](=O)[O-])c2C1`, `O=[N+]([O-])N=C1NCCN1Cc1ccc(F)nc1` is higher in melting point: 52 to 53 °C for the first, 121 to 124 °C for the second.

First: C[C@]1(CN2CCN(C3CCN(CC=Cc4ccc(OC(F)(F)F)cc4)CC3)CC2)Cn2cc([N+](=O)[O-])nc2O1
Second: CCOC(=O)c1ccc(/C=C/C2CCCN2C(=O)OC(C)(C)C)cc1 (stereo unspecified)
The melting point of the first is higher: 157 to 158 °C for the first, 68 to 70 °C for the second.

First: CON(Cc1nc2c(N)nc3cc(OCc4ccccc4)ccc3c2n1CC1CCOCC1)S(C)(=O)=O
Second: COC1(c2cccc(OCc3ccc(-n4cnc(C)c4)cc3)c2)CCOCC1
The melting point of the first is higher: 195 to 197 °C for the first, 120 to 121 °C for the second.

First: ClCc1ccc(OCc2coc(-c3ccccc3)n2)cc1
Second: COc1ccc(Cn2cc(C(=O)C(=O)NC3=CC(=O)OC3)c3ccccc32)cc1
The melting point of the first is lower: 129 to 130 °C for the first, 265 to 267 °C for the second.

First: O=C(O)c1cccc(-c2nc(-c3ccccc3F)no2)c1
Second: O=C(O)c1[nH]c(-c2ccoc2)cc1-c1ccc(O)cc1
The melting point of the first is higher: 233 to 234 °C for the first, 154 to 156 °C for the second.

Compared with `CCOC(=O)C(N)=NOC(=O)c1cnccc1C(F)(F)F`, `CCOC(=O)n1c(SC(F)(F)C(F)F)nc(-c2ccc(F)cc2)c1-c1ccc(F)cc1` is lower in melting point: 172 to 174 °C for the first, 137 to 139 °C for the second.

Compared with `O=C1OC(O)c2cccc(Cl)c21` (stereo unspecified), `COC(=O)NC1=NC(c2cccc3ccccc23)CN1` (stereo unspecified) is higher in melting point: 140 to 145 °C for the first, 208 to 209 °C for the second.

First: Cc1cccc(-c2[nH]c(C(C)C)nc2-c2ccc(F)c(-c3ccc[nH]3)c2)n1
Second: CC1(C)c2ccccc2-c2[nH]c3ccccc3c21
The melting point of the first is lower: 103 to 106 °C for the first, 160 °C for the second.

Compared with `COc1ccc(O)c(CNc2ccc(NC(=O)CC(C)(C)C)cc2)c1`, `COc1ccc(CCc2ccc(NC(=O)c3ccc(C)cc3O)cc2)cc1OC` is higher in melting point: 126 to 129 °C for the first, 162 to 164 °C for the second.

Compared with `N#Cc1cc(F)c(-n2ncc(Cl)c(Cl)c2=O)cc1F`, `CCNc1c(C#N)cnn1-c1ccc(Cl)c(Cl)c1Cl` is lower in melting point: 206 °C for the first, 145 °C for the second.

Compared with `C#Cc1ncn2c1CN(C)C(=O)c1ccccc1-2`, `CCOc1nc2c(cc1C)C(=O)c1ccccc1C2=O` is lower in melting point: 191 to 193 °C for the first, 186 to 188 °C for the second.

First: O=C1Nc2c(Br)cc(Br)c3cccc1c23
Second: CC(C)(C)OC(=O)n1cc(C=C(Br)Br)c2ccccc21
The melting point of the first is higher: 259 to 260 °C for the first, 101 to 104 °C for the second.

First: CC(C)(C)c1cc(-c2nn(CCCC(=O)O)c3ncccc23)cc(C(C)(C)C)c1O
Second: COc1cc(Cc2cnc(NCCSCc3nc[nH]c3C)[nH]c2=O)ccn1
The melting point of the first is higher: 192 to 194 °C for the first, 177 to 178 °C for the second.

Compared with `CCOP(=O)(OCC)C(CNc1nc(C)cc(Oc2ccc(Cl)cc2Cl)n1)P(=O)(OCC)OCC`, `CCCCOCCOc1ccc(-c2ccc(N3CCC(C(=O)OC)C3)c(C=C(C)C(=O)O)c2)cc1` (stereo unspecified) is higher in melting point: 76 to 77 °C for the first, 140 to 141 °C for the second.

First: CNC(=O)C1=CC(CF)(CF)Oc2ccc(C(F)(F)C(F)(F)F)cc21
Second: O=C(NC(Cc1ccccc1)c1ncc(C(F)(F)F)cc1Cl)c1c(Cl)cccc1Cl (stereo unspecified)
The melting point of the first is lower: 127 to 128 °C for the first, 164 to 168 °C for the second.

First: COc1ccc(NC(=O)C(F)F)cn1
Second: COC(=O)Oc1nc2c(N)ncnc2n1Cc1ccccc1
The melting point of the first is lower: 75 to 78 °C for the first, over 300 °C for the second.

First: N#Cc1nn(-c2c(Cl)cc(C(F)(F)F)cc2Cl)cc1C(=O)C1CC1
Second: N#Cc1cnn2c1NCCC2c1cccc(F)c1 (stereo unspecified)
The melting point of the first is higher: 195 to 197 °C for the first, 146 to 148 °C for the second.

First: COc1cc(C(=O)NS(=O)(=O)c2ccccc2C)ccc1CN1CCOc2ccc(NC(=O)CC3CCCC3)cc21
Second: CC(=O)NC1CCN(Cc2cnc3cc(NC(=O)c4ccc(-c5ccc(Cl)cc5)cc4)ccc3c2)C1 (stereo unspecified)
The melting point of the first is lower: 207 to 208 °C for the first, over 285 °C for the second.

First: COC1(c2ccccc2)C=CC(=O)C=C1
Second: Cc1ccc(-c2ccc3c(c2)C=C(S(=O)(=O)Cl)CCO3)cc1
The melting point of the first is lower: 89 °C for the first, 162 to 166 °C for the second.

First: Cc1nc2c(F)c(F)cc(F)c2s1
Second: Cc1c(N)cc2c(c1C)OC(C)(C)C2=O
The melting point of the first is lower: 91 to 92 °C for the first, 149 to 150 °C for the second.

First: COc1ccc2ncnc(N3CCc4ccc(Cl)cc43)c2c1
Second: COc1ccc(-c2cc3cc(OC)cc(C(O)C(F)(F)F)c3o2)cc1 (stereo unspecified)
The melting point of the first is higher: 243 °C for the first, 120 to 122 °C for the second.

Compared with `C=CCN1N=C(c2ccc(OC)c(OC)c2)[C@@H]2CCCC[C@@H]2C1=O` (relative stereo), `CN(CCCc1ccc(F)cc1)[C@H]1CC[C@H](c2ccc3[nH]c(=O)oc3c2)CC1` is lower in melting point: 99 to 101 °C for the first, 62 to 65 °C for the second.

First: Cc1c(OCC#N)cc2c(c1Cl)C(=O)C1(CCCC1)C2=O
Second: CCCCCCCCCCCCCCCCCNC(=O)Oc1cccc(N)c1
The melting point of the first is higher: 137 to 139 °C for the first, 69 to 75 °C for the second.

`CCCCCCC[C@H](CC(=O)OC(C)(C)C)C(=O)N1C(=O)OC[C@@H]1C(C)C` gave a melting point of 49 to 51 °C.

Reference: a melting point compilation (Tetko et al.; mined from patent text by program, amines drawn as free bases though some values may be those of a salt)
